# US6903218B2, “Sulfonamide substituted chroman derivatives” (Bayer Pharmaceuticals Corporation, priority 1997, dated 2005)
row,melting point,Structure (SMILES)
1,93 to 95 °C,O=c1n(CCCC2CCCC2)nnn1-c1ccc(NS(=O)(=O)c2ccc3c(c2)CCC(CNC[C@H](O)c2cccnc2)O3)cc1 (stereo partly shown) (hydrate or solvate)
2,90 to 92 °C,O=c1n(CCCC2CCCC2)ccn1-c1ccc(NS(=O)(=O)c2ccc3c(c2)CCC(CNC[C@H](O)c2cccnc2)O3)cc1 (stereo in doubt)
3,95 °C (dec.),Nc1ccc([C@@H](O)CNCC2CCc3cc(S(=O)(=O)Nc4ccc(Cl)cc4)ccc3O2)cn1 (stereo in doubt)
4,99.3 to 99.7 °C,Nc1ccc([C@@H](O)CNC[C@@H]2CCc3cc(S(=O)(=O)Nc4ccc(-n5nnn(CCCC6CCCC6)c5=O)cc4)ccc3O2)cn1
5,110 to 115 °C (dec.),O=c1n(CCCC2CCCC2)nnn1-c1ccc(NS(=O)(=O)c2ccc3c(c2)CCC(CN(C[C@H](O)c2cccc(Cl)c2)C[C@H](O)c2cccc(Cl)c2)O3)cc1 (stereo partly shown) (hydrate or solvate)
6,104 to 106 °C,CC(C)c1ccc(NS(=O)(=O)c2ccc3c(c2)CCC(CNC[C@H](O)c2cccnc2)O3)cc1 (stereo in doubt) (hydrate or solvate)
7,94 to 95 °C,Nc1ccc([C@@H](O)CNC[C@H]2CCc3cc(NS(=O)(=O)c4ccc(-n5nnn(CCCC6CCCCC6)c5=O)cc4)ccc3O2)cn1
